Where a name gives a salt, the structure may show the parent alone.
molecular target: human TRPV1 (Homo sapiens (Human), UniProt Q8NER1); settings: read-out: IC50 (μM), antagonist effect against human TRPV1; CHO cells expressing human TrpV1; stimulated with 2.5 μM NADA (EC80); mean of at least three independent experiments
Sequence (Q8NER1 whole entry): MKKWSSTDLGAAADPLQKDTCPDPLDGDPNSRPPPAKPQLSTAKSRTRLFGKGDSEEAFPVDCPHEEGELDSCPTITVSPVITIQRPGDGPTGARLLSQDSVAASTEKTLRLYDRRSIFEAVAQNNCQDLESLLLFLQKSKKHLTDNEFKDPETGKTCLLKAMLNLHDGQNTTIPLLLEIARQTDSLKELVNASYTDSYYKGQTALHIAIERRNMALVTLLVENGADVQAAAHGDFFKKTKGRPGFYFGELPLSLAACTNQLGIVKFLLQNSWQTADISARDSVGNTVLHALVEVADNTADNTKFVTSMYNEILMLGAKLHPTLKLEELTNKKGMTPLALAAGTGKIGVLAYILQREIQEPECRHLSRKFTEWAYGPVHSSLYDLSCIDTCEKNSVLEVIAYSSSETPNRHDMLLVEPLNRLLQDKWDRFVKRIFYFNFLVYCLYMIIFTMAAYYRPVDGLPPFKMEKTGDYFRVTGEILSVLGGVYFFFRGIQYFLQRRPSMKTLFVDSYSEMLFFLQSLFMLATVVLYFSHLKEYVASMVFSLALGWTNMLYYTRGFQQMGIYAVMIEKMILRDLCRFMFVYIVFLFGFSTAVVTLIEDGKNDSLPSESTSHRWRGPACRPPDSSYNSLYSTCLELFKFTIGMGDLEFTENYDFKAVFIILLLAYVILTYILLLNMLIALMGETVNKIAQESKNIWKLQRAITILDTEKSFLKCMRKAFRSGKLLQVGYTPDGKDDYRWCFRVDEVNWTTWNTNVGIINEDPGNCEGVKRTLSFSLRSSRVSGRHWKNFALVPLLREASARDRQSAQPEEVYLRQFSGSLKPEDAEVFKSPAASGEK

SMILES | IC50
Fc1ccc2cnccc2c1CN[C@H]1C[C@H](Oc2cccc(S(F)(F)(F)(F)F)c2)C1 [Example 33, (1r,3r)-N-((6-fluoroisoquinolin-5-yl)methyl)-3-(3-(pentafluoro-λ^6-sulfaneyl)phenoxy)cyclobutan-1-amine, HCl] | 0.0154 µM
Nc1cc2c(CN[C@H]3C[C@H](Oc4ccc(F)c(C(F)(F)F)c4)C3)c(F)cc([C@H](O)CO)c2cn1 (single isomer, unassigned; peak 2) [Example 21 peak 2] | 0.0113 µM
Fc1ccc2cnccc2c1CN[C@H]1C[C@H](Oc2ccc(C3CC3)cc2)C1 [Example 85, (1r,3r)-3-(4-cyclopropylphenoxy)-N-((6-fluoroisoquinolin-5-yl)methyl)cyclobutan-1-amine, HCl] | 0.155 µM
CC(C)(C)c1c(F)cc(O[C@H]2C[C@H](NCc3c(F)cc(CO)c4cnccc34)C2)cc1F [Example 45, (5-((((1r,3r)-3-(4-(tert-butyl)-3,5-difluorophenoxy)cyclobutyl)amino)methyl)-6-fluoroisoquinolin-8-yl)methanol] | 0.0188 µM
Cc1cc(C)cc(O[C@H]2C[C@H](NCc3c(F)ccc4cnccc34)C2)c1 [Example 84, (1r,3r)-3-(3,5-dimethylphenoxy)-N-((6-fluoroisoquinolin-5-yl)methyl)cyclobutan-1-amine, HCl] | 0.722 µM
C[C@]1(NCc2c(F)ccc3cnccc23)C[C@H](Oc2ccc(F)c(C(F)(F)F)c2)C1 [Example 68 trans, (1r,3r)-3-(4-fluoro-3-(trifluoromethyl)phenoxy)-N-((6-fluoroisoquinolin-5-yl)methyl)-1-methylcyclobutan-1-amine] | 0.0129 µM
Fc1ccc(S[C@H]2C[C@H](NCc3c(F)ccc4cnccc34)C2)cc1C(F)(F)F [Example 100, (1r,3r)-3-((4-fluoro-3-(trifluoromethyl)phenyl)thio)-N-((6-fluoroisoquinolin-5-yl)methyl)cyclobutan-1-amine, HCl] | 0.074 µM
Nc1cc2c(CN[C@H]3C[C@H](Oc4ccc(F)c(C(F)(F)F)c4)C3)c(F)cc(CO)c2cn1 [Example 18, (3-amino-6-fluoro-5-((((1r,3r)-3-(4-fluoro-3-(trifluoromethyl)phenoxy)cyclobutyl)amino)methyl)isoquinolin-8-yl)methanol, HCl] | 0.00163 µM
OCC[C@@H](O)c1cc(F)c(CN[C@H]2C[C@H](Oc3ccc(F)c(C(F)(F)F)c3)C2)c2ccncc12 (single isomer, unassigned; peak 2) [Example 9 peak 2] | 0.0137 µM
Fc1ccc2cnccc2c1CN[C@H]1C[C@H](Oc2ccc3ccccc3c2)C1 [Example 31, (1r,3r)-N-((6-fluoroisoquinolin-5-yl)methyl)-3-(naphthalen-2-yloxy)cyclobutan-1-amine, HCl] | 0.264 µM
Fc1ccc(O[C@H]2C[C@H](NCc3c(F)ccc4cncnc34)C2)cc1C(F)(F)F [Example 102, (1r,3r)-3-(4-fluoro-3-(trifluoromethyl)phenoxy)-N-((7-fluoroquinazolin-8-yl)methyl)cyclobutan-1-amine] | 0.0603 µM
FC(F)(F)c1ccc(O[C@H]2C[C@H](NCc3cccc4cnccc34)C2)cn1 [Example 112, (1r,3r)-N-(isoquinolin-5-ylmethyl)-3-((6-(trifluoromethyl)pyridin-3-yl)oxy)cyclobutan-1-amine] | 2.69 µM
Fc1ccc(S[C@H]2C[C@H](NCc3cccc4cnccc34)C2)cc1C(F)(F)F [Example 99, (1r,3r)-3-((4-fluoro-3-(trifluoromethyl)phenyl)thio)-N-(isoquinolin-5-ylmethyl)cyclobutan-1-amine, HCl] | 0.362 µM
OCCc1cc(F)c(CN[C@H]2C[C@H](Oc3ccc(F)c(C(F)(F)F)c3)C2)c2ccncc12 [Example 10, 2-(6-fluoro-5-((((1r,3r)-3-(4-fluoro-3-(trifluoromethyl)phenoxy)cyclobutyl)amino)methyl)isoquinolin-8-yl)ethan-1-ol, HCl] | 0.166 µM
CCOC(=O)c1cc(O[C@H]2C[C@H](NCc3c(F)ccc4cnccc34)C2)ccc1C(F)(F)F [Example 60, ethyl 5-((1r,3r)-3-(((6-fluoroisoquinolin-5-yl)methyl)amino)cyclobutoxy)-2-(trifluoromethyl)benzoate] | 0.32 µM
COc1c(F)cc(O[C@H]2C[C@H](NCc3c(F)cc(CO)c4cnccc34)C2)cc1F [Example 48, (5-((((1r,3r)-3-(3,5-difluoro-4-methoxyphenoxy)cyclobutyl)amino)methyl)-6-fluoroisoquinolin-8-yl)methanol] | 0.0345 µM
Fc1cc(O[C@H]2C[C@H](NCc3c(F)ccc4cnccc34)C2)ccc1OC(F)(F)F [Example 93, (1r,3r)-3-(3-fluoro-4-(trifluoromethoxy)phenoxy)-N-((6-fluoroisoquinolin-5-yl)methyl)cyclobutan-1-amine, HCl] | 0.0826 µM
NS(=O)(=O)NCC(O)c1cc(F)c(CN[C@H]2C[C@H](Oc3ccc(F)c(C(F)(F)F)c3)C2)c2ccncc12 (stereo partly shown) [Example 67, N-(2-(6-fluoro-5-((((1r,3r)-3-(4-fluoro-3-(trifluoromethyl)phenoxy)cyclobutyl)amino)methyl)isoquinolin-8-yl)-2-hydroxyethyl) sulfuric diamide] | 0.00377 µM
Fc1cc(O[C@H]2C[C@H](NCc3c(F)ccc4cnccc34)C2)ccc1C(F)F [Example 101, (1r,3r)-3-(4-(difluoromethyl)-3-fluorophenoxy)-N-((6-fluoroisoquinolin-5-yl)methyl)cyclobutan-1-amine] | 0.0147 µM
OCC(O)c1cc(F)c(CN[C@H]2C[C@H](Oc3ccc(F)c(C(F)(F)F)c3)C2)c2ccncc12 (mixture of isomers) [Example 7 racemic, 1-(6-fluoro-5-((((1r,3r)-3-(4-fluoro-3-(trifluoromethyl)phenoxy)cyclobutyl)amino)methyl)isoquinolin-8-yl)ethane-1,2-diol] | 0.0104 µM
Cc1ccc2cnccc2c1CN[C@H]1C[C@H](Oc2ccc(C(F)(F)F)nc2)C1 [Example 2, (1r,3r)-N-((6-methylisoquinolin-5-yl)methyl)-3-((6-(trifluoromethyl)pyridin-3-yl)oxy)cyclobutan-1-amine, HCl] | 0.711 µM
Fc1ccc2cnccc2c1CN[C@H]1C[C@H](Oc2cccc(OC(F)F)c2)C1 [Example 29, (1r,3r)-3-(3-(difluoromethoxy)phenoxy)-N-((6-fluoroisoquinolin-5-yl)methyl)cyclobutan-1-amine, HCl] | 0.0623 µM
COc1ncc(O[C@H]2C[C@H](NCc3c(F)ccc4cnccc34)C2)cc1C(F)(F)F [Example 92, (1r,3r)-N-((6-fluoroisoquinolin-5-yl)methyl)-3-((6-methoxy-5-(trifluoromethyl)pyridin-3-yl)oxy)cyclobutan-1-amine, HCl] | 0.58 µM
Nc1ccc(CN[C@H]2C[C@H](Oc3ccc(F)c(C(F)(F)F)c3)C2)c2ccncc12 [Example 5, 5-((((1r,3r)-3-(4-fluoro-3-(trifluoromethyl)phenoxy)cyclobutyl)amino)methyl)isoquinolin-8-amine, HCl] | 0.259 µM
FCc1cc(O[C@H]2C[C@H](NCc3c(F)ccc4cnccc34)C2)ccc1F [Example 41, (1r,3r)-3-(4-fluoro-3-(fluoromethyl)phenoxy)-N-((6-fluoroisoquinolin-5-yl)methyl)cyclobutan-1-amine, HCl] | 0.09 µM

Source: patent publication US11845730B2, “1,3-substituted cyclobutyl derivatives and uses thereof” (Novartis AG, priority 2021, dated 2023)
